The METLIN SMRT retention time set (Domingo-Almenara et al. 2019)

Assay: gradient 5% acetonitrile 3 min, to 50% in 2 min, to 85% in 15 min, held 3 min, 100 µL/min
Conditions: column: Zorbax Extend-C18 2.1 x 50 mm; eluents: water / acetonitrile, 0.1% formic acid
Method in brief: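 Retention time was recorded from adduct peaks, which were picked computationally and each inspected manually. Pure standards ran in mixtures of ~100 molecules on HPLC coupled to a quadrupole time-of-flight mass spectrometer, in positive and negative ionization mode, through a Zorbax Extend-C18 column (2.1 × 50 mm, 1.8 μm) at 100 μL/min. Eluents were water and acetonitrile, each with 0.1% formic acid.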

| RP-LC retention time [s] | Compound |
| --- | --- |
| 912 | CC(=O)N1c2ccc(S(=O)(=O)N3CCCCCC3)cc2CC1C(=O)NCc1ccccc1 (stereo not drawn) |
| 655 | CN(C(=O)Cn1nc2n(c1=O)CCCCC2)c1ccccc1 |
| 647 | CC(C)c1nnc2n1CCN(C(=O)c1cc(-c3ccccc3)n[nH]1)C2 |
| 704 | CCC(=O)Nc1sc2c(c1C(=O)Nc1ccccc1)CCCC2 |
| 677 | CCc1cc(=O)n(CC(=O)Nc2cccc(C(C)=O)c2)c(N2CCOCC2)n1 |
| 925 | CC(CCc1ccccc1)NC(=O)C(=O)NC1CCCC1 (stereo not drawn) |
| 710 | CC(C)Oc1ccc(CNC(=O)C2(C)CCCCC(=O)N2)cc1 (stereo not drawn) |
| 818 | O=C(NC1CC1)[C@@H]1C[C@H](Oc2ccccc2)CN1C(=O)CC1CCCC1 |
| 784 | O=C(CN1C(=O)C2CCCCN2c2ccc(C(=O)N3CCCCC3)cc21)NCc1ccco1 (stereo not drawn) |
| 552 | O=C(NCCN1CCCC1)c1ccc2nc(-c3ccccc3)cn2c1 |
| 751 | CCCC(NC(=O)c1cc(C)cc(C)c1)C(=O)Nc1nc2ccccc2[nH]1 (stereo not drawn) |
| 842 | O=S(=O)(c1ccc(-c2cnc(C3CCCC3)o2)s1)N1CCN(c2ccccn2)CC1 |
| 1140 | CC(C)OC(=O)COC(=O)c1cn(-c2cccc(Cl)c2)c(=O)c2ccccc12 |
| 599 | O=C(NC1CCCN(c2cc(-c3ccncc3)[nH]n2)C1)c1ccc(F)cc1 (stereo not drawn) |
| 646 | Cc1cc(NCC(=O)NC2CCCCC2)n2nc(-c3cccnc3)nc2n1 |
| 723 | Cc1ccc(C)c(CNC(=O)C2CCCN(c3cnn(C)c(=O)c3)C2)c1 (stereo not drawn) |
| 715 | O=C(NCCC1CCN(C(=O)Nc2cc(F)ccc2F)CC1)C1CC1 |
| 787 | O=C(Cc1nnc(-c2ccccc2)o1)NC1CCCCC1 |
| 710 | O=C(NC1CCCCC1)C1CCN(S(=O)(=O)c2cc(C(=O)N3CCOCC3)cs2)CC1 |
| 634 | CC(C)CN1CCn2cc(C(=O)NCC3CCCCC3)nc2C1 |
| 673 | Cc1ccccc1NC(=O)C1(C)Oc2cccnc2NC1=O (stereo not drawn) |
| 665 | CCCN1CCn2cc(C(=O)NCc3ccc(C(C)C)cc3)nc2C1 |
| 839 | CCCc1noc(-c2ccnc(-n3ncc(C(=O)NC4CC4)c3C)c2)n1 |
| 1130 | CCn1c(=O)n(CC(=O)N(C)C2CCCCC2)c(=O)c2cnc(-c3ccccc3)nc21 |
| 550 | CCCNc1cc(N2CCCC(CCC(=O)NCc3ccccn3)C2)ncn1 (stereo not drawn) |
| 715 | O=C(c1ccc2c(c1)OCO2)N1CCCN(C(=O)C2CC2)c2ccccc21 |
| 580 | CC(CCNC(=O)C1CCN(c2nc3cccnc3s2)CC1)N1CCCC1 (stereo not drawn) |

The next lines start with the molecule.

| Compound | RP-LC retention time [s] |
| --- | --- |
| COc1ccc(NC(=O)C2CC(=O)N(c3ccc4oc(C)nc4c3)C2)cc1F (stereo not drawn) | 733 |
| CCN1c2ccccc2C(=O)NC12CCN(C(=O)c1cc(OC)cc(OC)c1)CC2 | 771 |
| COc1ccc(CNC(=O)C2(C)CCCN(S(=O)(=O)c3ccc(Br)cc3)C2)cc1 (stereo not drawn) | 1020 |
| CN1C(=O)c2cccnc2Sc2cc(NC(=O)Cc3ccccc3Cl)ccc21 | 812 |
| Cn1cnc2ccc(-c3noc(-c4cccc(NC(=O)c5ccco5)c4)n3)cc21 | 682 |
| CCOC(=O)c1cc(C)nc2c1c(=O)n(Cc1ccc(F)cc1)c(=O)n2C | 1070 |
| COc1ccc2c(c1)C1(CCN(C(=O)NCc3ccc(C)cc3)C1)C(=O)N2 (stereo not drawn) | 725 |
| Cn1c([N+](=O)[O-])cnc1N1CCN(c2nncs2)C1=O | 689 |
| Cc1nccn1-c1cc(N2CCC3(CC2)OCCO3)nc2ccnn12 | 577 |
| CCc1nnc2ccc(S(=O)(=O)Nc3cccc(F)c3)cn12 | 714 |
| CCN1C(=O)c2cccc3c(NC(=O)Cc4ccc(S(C)(=O)=O)cc4)ccc1c23 | 657 |
| CCCCN1C(=O)C(NC(=O)c2ccccc2OC)(C(F)(F)F)C(C(=O)OC)=C1C (stereo not drawn) | 1070 |
| Cc1ccc(C(=O)Nc2ccc(-n3c(C)nc4ccccc4c3=O)cc2C)s1 | 821 |
| CCC(=O)N1CCc2cc(C)c(S(=O)(=O)NCc3ccco3)cc21 | 664 |
| Cc1nnc(NC(=O)c2ccccc2OCc2nc(-c3ccccc3)no2)s1 | 953 |
| CCn1cc(CC(=O)NCc2cccc(OC)c2)c2cccnc21 | 695 |
| Cc1cc(=O)n(CC(=O)Nc2ccccc2)c(-c2ccccc2)n1 | 964 |
| CCCCNC(=O)C1CCC(=O)N(c2ccc(OC)cc2)C1c1ccc(OC)c(OC)c1 (stereo not drawn) | 658 |
| CCSc1nnc(-c2nn(C)c3c2CN(S(=O)(=O)c2ccc(CC)cc2)CC3)n1CC | 1030 |
| O=C(Cc1csc(Nc2cccc(Cl)c2)n1)NCc1cccnc1 | 575 |
| CCc1ccc(-c2cn3cc(C(=O)N4CCCN(C)CC4)ccc3n2)cc1 | 570 |

| Compound | RP-LC retention time [s] |
| --- | --- |
| CCc1ccc(Nc2nc(C(=O)NCc3ccco3)nc3ccccc23)cc1 | 808 |
| CCc1ccccc1S(=O)(=O)N1C[C@@H]2C(=O)N(C(CC)c3cccs3)C(=O)[C@@H]2C1 (stereo partly drawn) | 1070 |
| CCN(c1ccccc1)S(=O)(=O)c1cc(-c2[nH]ncc2C(=O)N2CCOCC2)oc1C | 718 |
| O=C(Nc1ccc2c(c1)OCCO2)C1CCN(c2cncnc2N2CCCCC2)CC1 | 673 |
| Cc1cc2nn(CC(=O)N3CCCc4ccccc43)c(=O)n2c(Nc2ccc(F)cc2)n1 | 1060 |
| COc1ccc(S(=O)(=O)Cc2nc(-c3ccc(C)cc3)no2)cc1OC | 960 |
| CCOC(=O)Cc1csc(NC(=O)Cc2csc(Nc3nc(C)cc(C)n3)n2)n1 | 769 |
| COc1ccc(NC(=O)C2CCCN(c3nc4ccccc4nc3OC)C2)cc1OC (stereo not drawn) | 982 |
| N#Cc1cccc(NC(=O)CN2CCc3[nH]c4c(F)c(Cl)ccc4c(=O)c3C2)c1 | 913 |
| COc1cccc(NC2=NS(=O)(=O)c3ccccc32)c1 | 732 |
| O=c1c2sccc2n(Cc2nc(-c3ccc(C(F)(F)F)cc3)no2)c(=O)n1-c1ccc(F)cc1 | 1080 |
| Cc1ccc(Cl)cc1NC(=O)c1cc2ccccc2cc1O | 1180 |
| Cc1nc2cc(N3CCCC(C(=O)NCc4ccc(N(C)C)cc4)C3)cnc2nc1C (stereo not drawn) | 586 |
| COc1ccc(OC)c(NC(=O)c2cc(C3CC3)[nH]n2)c1 | 775 |
| Cc1ccc(OCC(=O)N(Cc2ccc(N(C)C)cc2)C2CCS(=O)(=O)C2)cc1C (stereo not drawn) | 774 |
| CCn1nc(C)c(CCNC(=O)c2cc3c(=O)n(Cc4ccco4)ccc3nc2C)c1C | 610 |
| O=C(CSc1nnc2c3sc(N4CCCC4)nc3ncn12)Nc1ccc(F)c(F)c1 | 863 |
| N#CC1=CN(c2cccc(C(F)(F)F)c2)c2ccccc2S1(=O)=O | 930 |
| CC(C)(C)NCCC(O)c1cc(C(F)(F)F)nc2c(C(F)(F)F)cccc12 (stereo not drawn) | 718 |
| CC(C)Cc1csc(-c2csc(S(=O)(=O)NCc3cc(F)cc(F)c3)c2)n1 | 1200 |
| Cn1nc(-c2nnc(-c3ccc(F)cc3)o2)c2c1CCN(S(=O)(=O)c1ccc(F)cc1F)C2 | 985 |

| Compound | RP-LC retention time [s] |
| --- | --- |
| CCN1c2ccccc2C(=O)NC12CCN(C(=O)c1ccc3c(c1)OCO3)CC2 | 740 |
| COc1ccc(N2CC(c3noc(-c4ccc(F)cc4)n3)CC2=O)cc1OC (stereo not drawn) | 856 |
| CCOC(=O)c1noc2ncnc(Nc3cc(F)ccc3F)c12 | 799 |
| Cc1ccsc1C(=O)N1C[C@@H]2CCCN3CCC[C@@H]([C@H]23)[C@H]1CCCC(=O)N1CCOCC1 | 593 |
| CCCS(=O)(=O)N1[C@H]2CC[C@@H]1c1cnc(-c3ccc(F)cc3)nc1C2 | 1010 |
| O=C(c1nnn2c1COC(c1ccccc1)C2)N1CCN(C(=O)c2cccc3[nH]ccc23)CC1 (stereo not drawn) | 792 |
| CC(=O)N1CCc2cc(-c3ccc(C(=O)N4CCN(Cc5ccc6c(c5)OCO6)CC4)cc3)ccc21 | 647 |
| O=C(Nc1nnc(SCc2nnc(-c3ccc4c(c3)OCO4)o2)s1)c1ccccc1 | 857 |
| Cc1cc(C)cc(NC(=O)CN2C(=O)CCc3cc(S(=O)(=O)N4CCCCC4C)ccc32)c1 (stereo not drawn) | 930 |
| CCc1ccc(CNC(=S)Nc2ccc3nc(N4CCN(C)CC4)cc(C)c3c2)cc1 | 641 |
| CCCn1c(-c2cccc(C(=O)NCc3ccc(C(F)(F)F)cc3)c2)nc2cccnc21 | 933 |
| CC(C)(C)CC(=O)N1CC2CN(S(=O)(=O)c3cccc(F)c3)CC(C1)O2 | 834 |
| CCc1nnc(-c2ccc(S(=O)(=O)N3CCCCC3)o2)o1 | 824 |
| Cc1cc2nc(C)c(=O)n(CC(=O)NCCCN(C)C3CCCCC3)c2cc1C | 624 |
| COc1ccc(N2C(=O)C3N=NN(Cc4nc(-c5ccc6c(c5)OCO6)no4)C3C2=O)cc1 (stereo not drawn) | 911 |
| Cc1oc(-c2cccc(Cl)c2)nc1COc1cc(C)c2c(C)nn(C)c2n1 | 1340 |
| CCOc1ccc(CN2CCC3(CC2)CC(O)CCO3)cc1OC (stereo not drawn) | 583 |
| O=C1C(NS(=O)(=O)c2ccc(C(F)(F)F)cc2)CCN1c1ccc(F)cc1 (stereo not drawn) | 964 |
| Cc1noc(C2CN(C(=O)c3ccc4ncsc4c3)C2)n1 | 593 |
